Reference: paper PMC9599757, “Leveraging the Structure of DNAJA1 to Discover Novel Potential Pancreatic Cancer Therapies” (Biomolecules, 2022)

B1: Recombinant Human ADP/ATP translocase 3 (ANT3), amino acids 232-272 (domain or fragment, UniProt P12236 232-272, looked up)
chain: DTVRRRMMMQSGRKGADIMYTGTVDCWRKIFRDEGGKAFFK
notes: ADP/ATP translocase 3 (ANT3), human, amino acids 232-272; The construct included an N-terminal 6xHis-KSI tag to aid purification and solubility; also called ANT3 construct; source: bought: CUSABIO, catalog number CSB-EP021520HU1

Assays:
DNAJA1 [1] = target: T1, DNAJA1 (Homo sapiens, UniProt P31689); experiment: 1D […] NMR line broadening and 2D 1H-15N HSQC chemical shift perturbation; format: binding
T1 construct: DNAJA1-107 (residues 1 to 107, J-domain and linker, N-terminal 6x-His tag)

DNAJA1 [2] = target: T1, DNAJA1; experiment: ITC; STD NMR and 2D 1H-15N HSQC chemical shift perturbation; format: binding
[3] = target: T2, DNAJA1-107 (residues 1 to 107 of human DnaJ homolog subfamily A member 1) (human, UniProt P31689 1-107); experiment: NMR titration; 15N-DNAJA1-107 mixed with ANT3 (232-272) at DNAJA1-107:ANT3 molar ratios 10:1, 5:1 and 1:1 (50 uM each at equal molarity); 10 mM Tris-HCl, 1 mM EDTA, 6% trehalose, pH 8.0; 2D 1H-15N HSQC; immediate, concentration-dependent precipitation on mixing taken as the sign of interaction; settings: both partners purified
T2 construct: The methods name an N-terminal 6x-histidine tag; 15N-labelled for the NMR experiment with ANT3; source: for the pull-down immobilised on cobalt resin; not shown: His6, N-terminal, kept

Molecule | Kd (DNAJA1 [2]) | other results
Nc1ncnc2c1ncn2[C@@H]1O[C@H](COP(=O)(O)OP(=O)(O)O)[C@@H](O)[C@H]1O [ADP] | – | 1D 31P NMR line broadening and 2D 1H-15N HSQC chemical shift perturbation (DNAJA1 [1]): ADP, O-phospho-L-serine, O-phospho-L-tyrosine, and dihydroxyacetone phosphate exhibited specific binding to DNAJA1-107
CCOc1ccc(-c2cc(OC(=O)c3cccs3)c3c(C)oc(C)c3c(=O)c2)cc1 [compound 7727968, 6-(4-ethoxyphenyl)-1,3-dimethyl-4-oxo-4H-cyclohepta[c]furan-8-yl 2-thiophenecarboxylate] | 10 µM | –
O=C(c1ccc(Br)s1)N1CCN(c2ccc(F)cc2)CC1 [compound 9101204, 1-[(5-bromo-2-thienyl)carbonyl]-4-(4-fluorophenyl)piperazine] | 0.1 ± 0.3 µM | –
B1 | – | binding result [3]: binds
